Reference: publication PMC8467136, “Enabling Efficient Folding and High-Resolution Crystallographic Analysis of Bracelet Cyclotides” (Molecules, 2021)
Several values for one entry are separate records, joined by “and”; a condition that tells them apart may be missing. Equal entries are not always repeated. Bridge positions count the residues as written; N and C are the ends. Peptide text beside a SMILES is read from it.

How the values were obtained:
[1] = test system: POPC/POPE (80:20) model membrane; test: Membrane binding to POPC/POPE lipid bilayers by surface plasmon resonance (SPR); settings: for P/L Max, peptide-to-lipid maximum binding value / Kd: BIAcore T200, L1 chip, POPC/POPE (80:20) bilayer, 10 mM HEPES, 150 mM NaCl; for P/L Max, peptide-to-lipid maximum binding value: pH 7.4, injection 180 s, dissociation 600 s, nonlinear regression; for Kd: pH 7.4, nonlinear regression, read-out: KD, peptide concentration required to achieve half-maximum binding at equilibrium
Text: Cyclotides are reported to exert their biological activities via membrane binding, particularly by selective binding to lipids containing phosphatidylethanolamine (PE) headgroups. Therefore, to evaluate the functional impact of the single mutation on bracelet cyclotides, the membrane-binding ability of these variants towards PE-containing lipid bilayers was examined using surface plasmon resonance (SPR). The model membrane comprising 80% 1-palmitoyloleoyl-phosphatidylcholine (POPC) and 20% 1-palmitoyloleoyl-phosphatidylethanolamine (POPE) was used. Binding affinity was evaluated by the peptide-to-lipid maximum binding value (P/L max, mol/mol) and the peptide concentration required to achieve half-maximum binding at equilibrium (KD value, μM). […] The negative effect of the [I11G] bracelet cyclotide mutation on lipid binding was expected, as the mutation reduces surface hydrophobicity, a previously reported determinant of membrane binding. The SPR dose-response curves and sensorgrams are shown in Figure S4 in Supplementary Material.
The binding affinity of bracelet cyclotides and their variants toward lipid bilayers was studied using SPR, as described previously. Two synthetic lipids, 1-palmitoyl-2-oleoyl-glycero-3-phosphocholine (POPC) and 1-palmitoyl-2-oleoyl-sn-glycero-3-phosphoethanolamine (POPE), were purchased from Avanti Polar Lipids (USA). Briefly, homogenous, small, unilamellar vesicles composed of POPC/POPE (80:20, mol/mol) were obtained by extruding the vesicle suspension through a 50-nm pore size polycarbonate membrane. L1 sensor chips and BIAcore T200 instrument were used (Cytiva, Marlborough, MA, USA). After the lipid was loaded and formed a bilayer membrane on the L1 chip, peptide solutions were injected over the lipid surface for 180 s and the dissociation was monitored for 600 s. Peptides were tested at concentrations ranging from 4–32 μM. Peptide-to-lipid molar ratio and KD values were calculated by nonlinear regression using GraphPad Prism software (version 8.3.1). Peptide solutions and lipid vesicles were prepared in HEPES buffer (10 mM HEPES, 150 mM NaCl, pH 7.4, filtered) for SPR studies.

[2] = test system: HeLa cells; test: Cytotoxicity against HeLa cells, resazurin assay; format: cell-based; settings: 5000 cells/well, 24-h incubation with peptide, then resazurin 18 h, triplicate, mean ± SEM
Procedure: To further confirm the activity of these mutants, their cytotoxicity against HeLa cancer cells was evaluated along with wild-type bracelet cyclotides. […] Of the four [I11G] mutants, the hyen D analogue had the highest activity, possibly because hyen D has one more hydrophobic residue in loop 3 compared to the other three cyclotides, which may contribute to its higher lipid-binding capacity (P/L max = 0.37) and help offset the hydrophobicity loss caused by the [I11G] mutation.
The cytotoxicity of the peptides was evaluated using the resazurin assay, as described previously. HeLa cells were seeded at 5000 cells/well in a 96-well, flat-bottomed plate one day prior to the experiments. Peptide solutions were prepared in water and incubated with HeLa cells at concentrations ranging from 16 to 0.125 μM or 8 to 0.063 μM in triplicate (final concentrations). Water and 1% Triton X-100 (TX) were applied as negative and positive control, respectively. After 24-h incubation, 10 μL of resazurin (0.05%, w/v) was added and incubated with cells for another 18 h. The absorbance was measured at 540 and 620 nm on a microplate reader (Infinite M1000 Pro microplate reader, Tecan, Switzerland). The percentage of cell death was quantified by calculating the absorbance ratio, R (R = absorbance at 620/540), and applying the following equation: % Cell death = (Rsample − RH2O)/(RTX − RH2O) × 100. Data were analyzed with GraphPad Prism software (version 8.3.1) using Specific binding with Hill slope algorithm.

SMILES: CC[C@H](C)[C@@H]1NC(=O)[C@H](C)NC(=O)[C@H](CO)NC(=O)[C@H](CO)NC(=O)[C@H]([C@@H](C)CC)NC(=O)[C@@H]2CSSC[C@@H]3NC(=O)[C@H](C(C)C)NC(=O)[C@H](CCCCN)NC(=O)[C@H](CO)NC(=O)[C@H](CCCCN)NC(=O)[C@@H]4CSSC[C@H](NC(=O)[C@H](CO)NC(=O)[C@H](CCC(=O)O)NC(=O)CNC(=O)[C@H](CSSC[C@H](NC(=O)CNC1=O)C(=O)N[C@@H](CO)C(=O)N4)NC(=O)[C@@H]1CCCN1C(=O)[C@H]([C@@H](C)CC)NC(=O)CNC(=O)[C@H](CC(N)=O)NC(=O)[C@H](CCCNC(=N)N)NC(=O)[C@H](Cc1ccc(O)cc1)NC3=O)C(=O)N[C@@H](C(C)C)C(=O)N[C@@H](Cc1c[nH]c3ccccc13)C(=O)NCC(=O)N1CCC[C@H]1C(=O)N2 [[I11G]cyO2] (cyclo(AIGCSCKSKVCYRNGIPCGESCVWGPCISS); disulfide 4-18, 6-22, 11-27)
- P/L Max, peptide-to-lipid maximum binding value [1]: n.b. ^3
- CC50 on HeLa (half maximum cytotoxic concentration) [2]: >64 µM

SMILES: CC[C@H](C)[C@@H]1NC(=O)CNC(=O)[C@H](CC(N)=O)NC(=O)[C@H](CCCNC(=N)N)NC(=O)[C@H](Cc2ccc(O)cc2)NC(=O)[C@@H]2CSSC[C@@H]3NC(=O)[C@@H]4CCCN4C(=O)[C@H](CC(C)C)NC(=O)[C@H](Cc4c[nH]c5ccccc45)NC(=O)[C@H](C(C)C)NC(=O)[C@@H]4CSSC[C@H](NC(=O)[C@H](CO)NC(=O)[C@H](CSSC[C@H](NC(=O)[C@@H]5CCCN5C1=O)C(=O)NCC(=O)N[C@@H](CCC(=O)O)C(=O)N[C@@H](CO)C(=O)N4)NC(=O)CNC(=O)[C@H](C(C)C)NC(=O)[C@H](C)NC(=O)[C@H](CO)NC(=O)[C@H]([C@@H](C)O)NC(=O)[C@H](CC(C)C)NC3=O)C(=O)N[C@@H](CCCCN)C(=O)N[C@@H](CO)C(=O)N[C@@H](CCCCN)C(=O)N[C@@H](C(C)C)C(=O)N2 [[I11L]cyO9] (cyclo(AVGCSCKSKVCYRNGIPCGESCVWLPCLTS); disulfide 4-18, 6-22, 11-27)
- P/L Max, peptide-to-lipid maximum binding value [1]: 0.31 ± 0.00 mol/mol
- Kd [1]: 4.26 ± 0.06 µM
- CC50 on HeLa (half maximum cytotoxic concentration) [2]: 1.06 ± 0.03 µM

SMILES: CC[C@H](C)[C@@H]1NC(=O)[C@H](C)NC(=O)[C@H](C)NC(=O)[C@H]([C@@H](C)O)NC(=O)[C@H](Cc2ccccc2)NC(=O)[C@@H]2CSSC[C@@H]3NC(=O)[C@H](C(C)C)NC(=O)[C@H](CCCCN)NC(=O)[C@H](CO)NC(=O)[C@H](CCCCN)NC(=O)[C@@H]4CSSC[C@H](NC(=O)[C@H](CO)NC(=O)[C@H](CCC(=O)O)NC(=O)CNC(=O)[C@H](CSSC[C@H](NC(=O)CNC1=O)C(=O)N[C@@H](CO)C(=O)N4)NC(=O)[C@@H]1CCCN1C(=O)[C@H](Cc1ccccc1)NC(=O)CNC(=O)[C@H](CC(N)=O)NC(=O)[C@H](CCCCN)NC(=O)[C@H](Cc1ccc(O)cc1)NC3=O)C(=O)N[C@@H](C(C)C)C(=O)N[C@@H](Cc1ccc(O)cc1)C(=O)NCC(=O)N1CCC[C@H]1C(=O)N2 [[I11G]hD] (cyclo(AAIGCSCKSKVCYKNGFPCGESCVYGPCFT); disulfide 5-19, 7-23, 12-28)
- P/L Max, peptide-to-lipid maximum binding value [1]: 0.24 ± 0.01 mol/mol
- Kd [1]: 81 ± 7.91 µM
- Fold weaker affinity to membranes compared to parent peptide ([1]; POPC/POPE (80:20), compared with hyen D): 18 fold
- CC50 on HeLa (half maximum cytotoxic concentration) [2]: 50.2 ± 4.61 µM

SMILES: CC[C@H](C)[C@@H]1NC(=O)[C@H](C)NC(=O)[C@H](C)NC(=O)[C@H]([C@@H](C)O)NC(=O)[C@H](Cc2ccccc2)NC(=O)[C@@H]2CSSC[C@@H]3NC(=O)[C@H](C(C)C)NC(=O)[C@H](CCCCN)NC(=O)[C@H](CO)NC(=O)[C@H](CCCCN)NC(=O)[C@@H]4CSSC[C@H](NC(=O)[C@H](CO)NC(=O)[C@H](CCC(=O)O)NC(=O)CNC(=O)[C@H](CSSC[C@H](NC(=O)CNC1=O)C(=O)N[C@@H](CO)C(=O)N4)NC(=O)[C@@H]1CCCN1C(=O)[C@H](Cc1ccccc1)NC(=O)CNC(=O)[C@H](CC(N)=O)NC(=O)[C@H](CCCCN)NC(=O)[C@H](Cc1ccc(O)cc1)NC3=O)C(=O)N[C@@H](C(C)C)C(=O)N[C@@H](Cc1ccc(O)cc1)C(=O)N[C@@H](CC(C)C)C(=O)N1CCC[C@H]1C(=O)N2 [[I11L]hD] (cyclo(AAIGCSCKSKVCYKNGFPCGESCVYLPCFT); disulfide 5-19, 7-23, 12-28)
- P/L Max, peptide-to-lipid maximum binding value [1]: 0.36 ± 0.01 mol/mol
- Kd [1]: 4.39 ± 0.5 µM
- CC50 on HeLa (half maximum cytotoxic concentration) [2]: 0.70 ± 0.02 µM

SMILES: CC[C@H](C)[C@@H]1NC(=O)[C@H](C)NC(=O)[C@H](CO)NC(=O)[C@H](CO)NC(=O)[C@H]([C@@H](C)CC)NC(=O)[C@@H]2CSSC[C@@H]3NC(=O)[C@H](C(C)C)NC(=O)[C@H](CCCCN)NC(=O)[C@H](CO)NC(=O)[C@H](CCCCN)NC(=O)[C@@H]4CSSC[C@H](NC(=O)[C@H](CO)NC(=O)[C@H](CCC(=O)O)NC(=O)CNC(=O)[C@H](CSSC[C@H](NC(=O)CNC1=O)C(=O)N[C@@H](CO)C(=O)N4)NC(=O)[C@@H]1CCCN1C(=O)[C@H]([C@@H](C)CC)NC(=O)CNC(=O)[C@H](CC(N)=O)NC(=O)[C@H](CCCNC(=N)N)NC(=O)[C@H](Cc1ccc(O)cc1)NC3=O)C(=O)N[C@@H](C(C)C)C(=O)N[C@@H](Cc1c[nH]c3ccccc13)C(=O)N[C@@H](CC(C)C)C(=O)N1CCC[C@H]1C(=O)N2 [[I11L]cyO2] (cyclo(AIGCSCKSKVCYRNGIPCGESCVWLPCISS); disulfide 4-18, 6-22, 11-27)
- P/L Max, peptide-to-lipid maximum binding value [1]: 0.31 ± 0.01 mol/mol
- Kd [1]: 4.71 ± 0.17 µM
- CC50 on HeLa (half maximum cytotoxic concentration) [2]: 0.95 ± 0.08 µM

SMILES: CC[C@H](C)[C@@H]1NC(=O)[C@H](C)NC(=O)[C@H](C)NC(=O)[C@H]([C@@H](C)O)NC(=O)[C@H](Cc2ccccc2)NC(=O)[C@@H]2CSSC[C@@H]3NC(=O)[C@H](C(C)C)NC(=O)[C@H](CCCCN)NC(=O)[C@H](CO)NC(=O)[C@H](CCCCN)NC(=O)[C@@H]4CSSC[C@H](NC(=O)[C@H](CO)NC(=O)[C@H](CCC(=O)O)NC(=O)CNC(=O)[C@H](CSSC[C@H](NC(=O)CNC1=O)C(=O)N[C@@H](CO)C(=O)N4)NC(=O)[C@@H]1CCCN1C(=O)[C@H](Cc1ccccc1)NC(=O)CNC(=O)[C@H](CC(N)=O)NC(=O)[C@H](CCCCN)NC(=O)[C@H](Cc1ccc(O)cc1)NC3=O)C(=O)N[C@@H](C(C)C)C(=O)N[C@@H](Cc1ccc(O)cc1)C(=O)N[C@@H]([C@@H](C)CC)C(=O)N1CCC[C@H]1C(=O)N2 [hyen D, reference compound] (cyclo(AAIGCSCKSKVCYKNGFPCGESCVYIPCFT); disulfide 5-19, 7-23, 12-28)
- P/L Max, peptide-to-lipid maximum binding value [1]: 0.37 mol/mol and 0.37 ± 0.01 mol/mol
- Kd [1]: 4.48 ± 0.17 µM
- CC50 on HeLa (half maximum cytotoxic concentration) [2]: 0.85 ± 0.03 µM

SMILES: CC[C@H](C)[C@@H]1NC(=O)CNC(=O)[C@H](CC(N)=O)NC(=O)[C@H](CCCNC(=N)N)NC(=O)[C@H](Cc2ccc(O)cc2)NC(=O)[C@@H]2CSSC[C@@H]3NC(=O)[C@@H]4CCCN4C(=O)CNC(=O)[C@H](Cc4c[nH]c5ccccc45)NC(=O)[C@H](C(C)C)NC(=O)[C@@H]4CSSC[C@H](NC(=O)[C@H](CO)NC(=O)[C@H](CSSC[C@H](NC(=O)[C@@H]5CCCN5C1=O)C(=O)NCC(=O)N[C@@H](CCC(=O)O)C(=O)N[C@@H](CO)C(=O)N4)NC(=O)CNC(=O)[C@H](C(C)C)NC(=O)[C@H](C)NC(=O)[C@H](CO)NC(=O)[C@H]([C@@H](C)O)NC(=O)[C@H](CC(C)C)NC3=O)C(=O)N[C@@H](CCCCN)C(=O)N[C@@H](CO)C(=O)N[C@@H](CCCCN)C(=O)N[C@@H](C(C)C)C(=O)N2 [[I11G]cyO9] (cyclo(AVGCSCKSKVCYRNGIPCGESCVWGPCLTS); disulfide 4-18, 6-22, 11-27)
- P/L Max, peptide-to-lipid maximum binding value [1]: n.b.
- CC50 on HeLa (half maximum cytotoxic concentration) [2]: >64 µM
